Test results as given in PubChem BioAssay (NCI).
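96-well plates; 48 h exposure; 5 concentrations. Endpoints by linear interpolation between flanking doses. Not reached: highest tested concentration assigned. Definition used: TGI = concentration required for complete inhibition of growth.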 Where a SMILES comes first, the peptide text is derived from it.

How the values were obtained:
Assay in all cases: NCI-60 cell line screen, 48 h
[1] = tested on: HCC-2998 colon
[2] = tested on: COLO 205 colon
[3] = tested on: SNB-75 CNS
[4] = tested on: M14 melanoma
[5] = tested on: HS 578T breast
[6] = tested on: MALME-3M melanoma
[7] = tested on: NCI-H226 lung
[8] = tested on: EKVX NSCLC
[9] = tested on: NCI-H460 lung
[10] = tested on: SK-MEL-2 melanoma
[11] = tested on: MDA-N
[12] = tested on: ACHN renal
[13] = tested on: DU-145 prostate
[14] = tested on: SK-MEL-28 melanoma
[15] = tested on: T-47D breast
[16] = tested on: MOLT-4 leukemia
[17] = tested on: SK-MEL-5 melanoma
[18] = tested on: HOP-62 NSCLC
[19] = tested on: OVCAR-8 ovarian
[20] = tested on: HL-60(TB) leukemia

Row | SMILES | TGI [1] [µM] | TGI [2] [µM] | TGI [3] [µM] | TGI [4] [µM] | TGI [5] [µM] | TGI [6] [µM] | TGI [7] [µM] | TGI [8] [µM] | TGI [9] [µM] | TGI [10] [µM] | TGI [11] [µM] | TGI [12] [µM] | TGI [13] [µM] | TGI [14] [µM] | TGI [15] [µM] | TGI [16] [µM] | TGI [17] [µM] | TGI [18] [µM] | TGI [19] [µM] | TGI [20] [µM]
1 | Cn1c2ccccc2c2c3c(c4c5ccccc5n(C)c4c21)C(=O)N(Cc1ccccc1)C3=O | > 100 | > 100 | > 100 | > 100 | > 100 | > 100 | > 100 | > 100 | > 100 | > 100 | > 100 | > 100 | > 100 | > 100 | > 100 | > 100 | > 100 | > 100 | > 100 | 
2 | Nc1ccc2nc3n(c2c1)C(c1c(F)cccc1F)SC3 (stereo not given) | > 100 | > 100 | > 100 | > 100 | > 100 | > 100 |  | > 100 | > 100 | > 100 | > 100 | > 100 | > 100 | > 100 | > 100 | > 100 | > 100 | > 100 | > 100 | > 100
3 | CCCCC1Nc2ccccc2-c2ccnc(Cl)c21 (stereo not given) | 69.4 | 36 | 52.3 | 43.1 | 32.3 | 51 | 39.9 | 60.5 | > 100 | 35.8 | 54.9 | 68.4 | 50.3 | 46.5 |  | 50.9 | 30.3 | 53.3 |  | 51.8
4 | CC(=O)NC(CS)C(=O)NC(CO)C(=O)NC(CO)C(=O)NC(Cc1c[nH]c2ccccc12)C(=O)N1CCCC1C(=O)NC(CO)C(=O)NC(Cc1c[nH]c2ccccc12)C(=O)NC(Cc1c[nH]cn1)C(=O)NC(CO)C(=O)NC(Cc1c[nH]c2ccccc12)C(=O)NCC(=O)NCC(=O)NC(C)C(=O)NC(CCC(N)=O)C(=O)NC(CCCCN)C(=O)NC(C)C(=O)NC(CCCNC(=N)N)C(=O)NC(CCCCN)C(N)=O (stereo not given) (Ac-CSSWPSWHSWGGAQKARK-NH2; configuration not given here) |  | 28.2 | 42.1 | > 50 | > 50 | 20.3 | > 50 | > 50 | 35.5 | > 50 | > 50 | > 50 | > 50 | 20.9 | 28.5 | > 50 | 22.4 | > 50 | > 50 | 34.5
5 | O=C1C=CC(=O)c2c(O)c(NCCN3CCOCC3)c(Cl)c(O)c21 | 3.35 | 3.01 | 3.27 | 3.64 | 6.54 | 3.31 | > 10 | > 10 | 3.3 |  | 5.33 | 7.51 | 3.12 | 2.98 | 4.51 | 3.89 | 2.35 | 3.72 | > 10 | 
6 | CCOC(=O)c1ccc(Nc2nc3ccccc3n3cccc23)cc1 | > 100 | > 100 | 48.3 | > 100 | > 100 | > 100 |  | > 100 | > 100 | > 100 | > 100 | > 100 | > 100 | > 100 | 47.7 | > 100 | > 100 | 75.7 | > 100 | 0.0169
7 | Cc1ccc2c(ccc3ncc(CNc4ccc(NS(C)(=O)=O)cc4)c32)[nH]1 |  | 94.4 | 34 | 33.1 | 59.9 | 34.5 | 55.6 | > 100 | 35.4 | 38.5 | 32.1 | > 100 | 42.6 | 53.7 | 47.7 | 44.7 | 39.4 | 67.2 | 81.1 | 65.3
8 | CC(=O)OC(OC(C)=O)c1c2ccccc2cc2ccccc12 | 40.5 | 37.2 | 43.9 | 44.8 | 78.3 |  | 37.7 | 50.4 | 31.8 |  | 63.7 | 61.4 | > 100 |  | 85.2 | 16.9 | 25.8 |  | 41.8 | > 100
9 | CC1CN=C(N(C(=O)Nc2ccc(Cl)cc2)c2cccc(Cl)c2)S1 (stereo not given) | 84.6 | 40.1 | > 100 | > 100 | > 100 | > 100 |  | > 100 | > 100 | 44.9 | > 100 | > 100 | > 100 | > 100 | > 100 |  | 33.7 | > 100 | > 100 | > 100
10 | O=C1C2CCCC2N1Cc1ccccc1 (stereo not given) | > 100 | > 100 | > 100 | 26.9 | > 100 |  | > 100 | > 100 | > 100 |  | > 100 | > 100 | > 100 |  | > 100 | > 100 | > 100 | > 100 | > 100 | > 100
11 | Cc1ccc(N2C=Nn3c(nc4sc5c(c4c3=O)CCCC5)C2)cc1 | > 100 | > 100 | > 100 | > 100 | 92 | > 100 | > 100 | > 100 | > 100 | > 100 | > 100 | > 100 | > 100 | > 100 | > 100 | > 100 | > 100 | 69.2 | > 100 | 
12 | COc1ccc2[nH]c3c(c2c1)CCc1c(OC)cccc1-3 | > 100 | > 100 | > 100 | > 100 | > 100 | > 100 | > 100 | > 100 | > 100 | > 100 | > 100 | > 100 | > 100 | > 100 | > 100 | > 100 | > 100 | > 100 | > 100 | 
